IC50 data for seven compounds are collected here from EP1816136A1, “GPR7-SELECTIVE LIGAND AND USE THEREOF” (BANYU PHARMACEUTICAL CO., LTD., priority 2004, dated 2006).

Non-standard residues stand in square brackets, D forms with d. Residues, ends and D or L forms follow the SMILES beside them. 3Abz = Nc1cccc(C(=O)O)c1; 4Abz = Nc1ccc(C(=O)O)cc1; 2Abz = Nc1ccccc1C(=O)O; Ava = NCCCCC(=O)O Bounds are passed on as bounds.

One experiment concerns the target T1, GPR7 (Homo sapiens, UniProt P48145).
T1 construct: expressed in transfected cells; host or cells: HEK293/CRE-BLA cells (AURORA), expression vector pIRES-hygro (Clontech)
T1 sequence (P48145 1-328): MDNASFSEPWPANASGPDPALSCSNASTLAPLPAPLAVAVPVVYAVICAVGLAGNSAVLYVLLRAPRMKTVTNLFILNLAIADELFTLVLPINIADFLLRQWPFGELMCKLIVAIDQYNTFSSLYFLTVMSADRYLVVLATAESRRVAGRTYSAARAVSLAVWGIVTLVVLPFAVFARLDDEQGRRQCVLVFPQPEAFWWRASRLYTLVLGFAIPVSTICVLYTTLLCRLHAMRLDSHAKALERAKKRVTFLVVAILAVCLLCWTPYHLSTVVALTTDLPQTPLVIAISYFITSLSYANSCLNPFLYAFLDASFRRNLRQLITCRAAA
The experiment can be described thus: Binding inhibition test with [125I]-[Phe2]-hNPW(1-23), GPR7 membrane preparation. The protocol: (§1) One nmol of [Phe2]-hNPW(1-23) (prepared in Synthesis Example 19) was dissolved in 5 µL of anhydrous DMSO, and the solution was mixed with 0.1M nickel chloride. Then, the mixture was mixed with 10 µL of a 0.00 1 % aqueous solution of hydrogen peroxide, 10 µL of an enzyme solution (lactoperoxidase (Sigma) adjusted to 10 µg/mL with a 0.1M HEPES buffer solution), and 37 Mbq/10 µL of Iodine-125 (Amersham), whereafter the resulting mixture was reacted for 60 minutes at room temperature. The reaction was terminated with the addition of 10 µL of 1% sodium azide, and then a radiolabeled peptide fraction was collected by a PD-10 gel filtration column (Amersham) to obtain [^125I]-[Phe2]-hNPW(1-23).
(§2) A cDNA sequence coding for human GPR7 or GPR8 [see Genomics, vol. 28, p. 84 (1995)] was amplified by the PCR method, and cloned using the expression vector pIRES-hygro (Clontech). The resulting expression vector was transfected into HEK293/CRE-BLA cells (AURORA) using the cationic lipid method [see Proceedings of the National Academy of Sciences of the United States of America, vol. 84, p. 7413 (1987)] to obtain GPR7 or GPR8 expression cells.
(§3) A membrane preparation prepared from the cells expressing GPR7 or GPR8 was incubated for 1 hour at room temperature in an assay buffer solution (25 mM Tris buffer solution, 150 mM NaCl, pH 7.4) together with a test compound and 28,000 cpm of [^125I]-[Phe2]-hNPW(1-23). Then, the system was filtered through the glass filter GF/C. After washing with 25 mM Tris buffer solution (pH 7.4), radioactivity on the glass filter was measured. Nonspecific binding was measured in the presence of 1 µM hNPW (prepared in Synthesis Example 1), and the 50% inhibition concentration (IC50 value) of the test compound against [Phe2]-hNPW(1-23) specific binding was calculated [see Molecular Pharmacology, vol. 55, 1101 (1999)].

A further experiment concerns the target T2, GPR8 (Homo sapiens, UniProt P48146).
T2 construct: expressed in transfected cells; host or cells: HEK293/CRE-BLA cells (AURORA), expression vector pIRES-hygro (Clontech)
The experiment can be described thus: Binding inhibition test with [125I]-[Phe2]-hNPW(1-23), GPR8 membrane preparation. The protocol:
as §1, §2, §3

Where [1] appears, read: Table 2, membrane preparation of cells expressing GPR7.
The mark [2] stands for this setting: Table 2, membrane preparation of cells expressing GPR8.

T2 sequence (P48146 whole entry): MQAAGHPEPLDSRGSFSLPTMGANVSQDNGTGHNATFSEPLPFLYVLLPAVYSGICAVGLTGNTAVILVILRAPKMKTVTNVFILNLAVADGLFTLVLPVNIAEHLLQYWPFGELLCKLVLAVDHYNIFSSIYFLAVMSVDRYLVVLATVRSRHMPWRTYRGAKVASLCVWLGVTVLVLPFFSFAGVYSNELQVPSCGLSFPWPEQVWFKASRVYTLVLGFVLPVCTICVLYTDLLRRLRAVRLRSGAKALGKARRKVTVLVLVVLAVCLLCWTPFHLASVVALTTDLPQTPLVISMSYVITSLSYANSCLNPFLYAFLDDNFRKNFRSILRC

The term IC50 denotes the point on the concentration scale where inhibition reaches its midpoint. Low readings indicate greater potency in that assay, high ones weaker potency in that assay. Regarding `CC(C)C[C@H](NC(=O)CNC(=O)[C@H](CO)NC(=O)[C@H](CC(C)C)NC(=O)[C@H](CC(C)C)NC(=O)CNC(=O)[C@H](C)NC(=O)[C@H](C)NC(=O)[C@H](CCCNC(=N)N)NC(=O)CNC(=O)CCCCNC(=O)c1ccccc1NC(=O)CCCCNC(=O)[C@H](CCCCN)NC(=O)[C@H](Cc1ccc(O)cc1)NC(=O)[C@@H](N)Cc1c[nH]c2ccccc12)C(N)=O` [compound 13] (H-WYK[Ava][2Abz][Ava]GRAAGLLSGL-NH2), the half-maximal inhibitory concentration (IC50) on GPR7 (setting [1]) stood at 0.56 nM; at GPR8 (setting [2]), 39 nM.
As for `CC(C)C[C@H](NC(=O)CNC(=O)[C@H](CO)NC(=O)[C@H](CC(C)C)NC(=O)[C@H](CC(C)C)NC(=O)CNC(=O)[C@H](C)NC(=O)[C@H](C)NC(=O)[C@H](CCCNC(=N)N)NC(=O)CNC(=O)c1ccccc1NC(=O)CCCCNC(=O)CCCCNC(=O)[C@H](CCCCN)NC(=O)[C@H](Cc1ccc(O)cc1)NC(=O)[C@@H](N)Cc1c[nH]c2ccccc12)C(N)=O` [compound 10] (H-WYK[Ava][Ava][2Abz]GRAAGLLSGL-NH2), the IC50 on GPR7 (setting [1]) was 4.7 nM; at GPR8 (setting [2]), 8000 nM.
As to `CC(C)C[C@H](NC(=O)CNC(=O)[C@H](CO)NC(=O)[C@H](CC(C)C)NC(=O)[C@H](CC(C)C)NC(=O)CNC(=O)[C@H](C)NC(=O)[C@H](C)NC(=O)[C@H](CCCNC(=N)N)NC(=O)CNC(=O)CCCCNC(=O)c1ccc(NC(=O)CCCCNC(=O)[C@H](CCCCN)NC(=O)[C@H](Cc2ccc(O)cc2)NC(=O)[C@@H](N)Cc2c[nH]c3ccccc23)cc1)C(N)=O` [compound 15] (H-WYK[Ava][4Abz][Ava]GRAAGLLSGL-NH2), the half-maximal inhibitory concentration (IC50) at GPR7 (setting [1]) is 0.4 nM; at GPR8 (setting [2]) it was 34 nM.
On the same counts, the results for `CC(C)C[C@H](NC(=O)CNC(=O)[C@H](CO)NC(=O)[C@H](CC(C)C)NC(=O)[C@H](CC(C)C)NC(=O)CNC(=O)[C@H](C)NC(=O)[C@H](C)NC(=O)[C@H](CCCNC(=N)N)NC(=O)CNC(=O)c1cccc(NC(=O)CCCCNC(=O)CCCCNC(=O)[C@H](CCCCN)NC(=O)[C@H](Cc2ccc(O)cc2)NC(=O)[C@@H](N)Cc2c[nH]c3ccccc23)c1)C(N)=O` [compound 11] (H-WYK[Ava][Ava][3Abz]GRAAGLLSGL-NH2) are 0.37 nM and 13 nM.
In the same order, the values of `CC(C)C[C@H](NC(=O)CNC(=O)[C@H](CO)NC(=O)[C@H](CC(C)C)NC(=O)[C@H](CC(C)C)NC(=O)CNC(=O)[C@H](C)NC(=O)[C@H](C)NC(=O)[C@H](CCCNC(=N)N)NC(=O)CNC(=O)CCCCNC(=O)c1cccc(NC(=O)CCCCNC(=O)[C@H](CCCCN)NC(=O)[C@H](Cc2ccc(O)cc2)NC(=O)[C@@H](N)Cc2c[nH]c3ccccc23)c1)C(N)=O` [compound 14] (H-WYK[Ava][3Abz][Ava]GRAAGLLSGL-NH2) are 0.19 nM and 16 nM.
`CC(C)C[C@H](NC(=O)CNC(=O)[C@H](CO)NC(=O)[C@H](CC(C)C)NC(=O)[C@H](CC(C)C)NC(=O)CNC(=O)[C@H](C)NC(=O)[C@H](C)NC(=O)[C@H](CCCNC(=N)N)NC(=O)CNC(=O)CCCCNC(=O)CCCCNC(=O)c1ccccc1NC(=O)[C@H](CCCCN)NC(=O)[C@H](Cc1ccc(O)cc1)NC(=O)[C@@H](N)Cc1c[nH]c2ccccc12)C(N)=O` [compound 16] (H-WYK[2Abz][Ava][Ava]GRAAGLLSGL-NH2): the values for the IC50 on GPR7 (setting [1]) and on GPR8 (setting [2]) were 1.3 nM and 160 nM, respectively.
With `CC(C)C[C@H](NC(=O)CNC(=O)[C@H](CO)NC(=O)[C@H](CC(C)C)NC(=O)[C@H](CC(C)C)NC(=O)CNC(=O)[C@H](C)NC(=O)[C@H](C)NC(=O)[C@H](CCCNC(=N)N)NC(=O)CNC(=O)CCCCNC(=O)CCCCNC(=O)CCCCNC(=O)CCCCNC(=O)CCCCNC(=O)[C@H](CCCCN)NC(=O)[C@H](Cc1ccc(O)cc1)NC(=O)[C@@H](N)Cc1c[nH]c2ccccc12)C(N)=O` [compound 9] (H-WYK[Ava][Ava][Ava][Ava][Ava]GRAAGLLSGL-NH2), the IC50 at GPR7 (Table 1, membrane preparation of HEK293/CRE-BLA cells expressing GPR7, 1 hour at room temperature) was above 100 nM; at GPR8 (Table 1, membrane preparation of HEK293/CRE-BLA cells expressing GPR8, 1 hour at room temperature), 2600 nM.
